One block for each molecule: values may come before it.
System: 855422-203-R-J1-PDC complex spheroids, viability
Assay: Anticancer human tumor 855422-203-R-J1-PDC patient-derived bladder carcinoma cell line growth inhibition [CLK]
Conditions: for IC50: curve of first compound; for viability, T/C: stronger effect = lower value
Method in brief: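 Multi-cell-type spheroids combined patient-derived tumor cells with HUVEC endothelial cells and human mesenchymal stem cells. Paired agents were dosed in half-log steps down from about clinical Cmax, or from 10 microM where Cmax was unknown.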
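Also: spheroids exposed to drugs for seven days before readout.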
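For viability, T/C in this document: 100% = DMSO vehicle control wells.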

IC50 (second compound 0.0316 µM): 2340 nM
IC50 (second compound 0.1 µM): 1070 nM
IC50 (second compound 0.316 µM): < 31.6 nM
IC50 (second compound 1 µM): < 31.6 nM
IC50 (second compound 3.16 µM): < 31.6 nM
IC50 (second compound 10 µM): < 31.6 nM
SMILES: CC1COCCN1c1cc(C2(S(C)(=N)=O)CC2)nc(-c2ccnc3[nH]ccc23)n1 (centres undefined) + CNC(=O)c1ccc(Nc2nc(OC3CCCC3)c3c(-c4ccc5nc(C)oc5c4)c[nH]c3n2)c(OC)c1
viability, T/C (second compound 0.0316 µM, first compound 0.0316 µM): 101%
viability, T/C (second compound 0.0316 µM, first compound 0.1 µM): 95.5%
viability, T/C (second compound 0.0316 µM, first compound 0.316 µM): 103%
viability, T/C (second compound 0.0316 µM, first compound 1 µM): 111%
viability, T/C (second compound 0.0316 µM, first compound 3.16 µM): 31.3%
viability, T/C (second compound 0.0316 µM, first compound 10 µM): 11.1%
viability, T/C (second compound 0.1 µM, first compound 0.0316 µM): 61.3%
viability, T/C (second compound 0.1 µM, first compound 0.1 µM): 65%
viability, T/C (second compound 0.1 µM, first compound 0.316 µM): 57.3%
viability, T/C (second compound 0.1 µM, first compound 1 µM): 52.4%
viability, T/C (second compound 0.1 µM, first compound 3.16 µM): 18.6%
viability, T/C (second compound 0.1 µM, first compound 10 µM): 11.6%
viability, T/C (second compound 0.316 µM, first compound 0.0316 µM): 23.3%
viability, T/C (second compound 0.316 µM, first compound 0.1 µM): 22%
viability, T/C (second compound 0.316 µM, first compound 0.316 µM): 23.2%
viability, T/C (second compound 0.316 µM, first compound 1 µM): 15.2%
viability, T/C (second compound 0.316 µM, first compound 3.16 µM): 11.8%
viability, T/C (second compound 0.316 µM, first compound 10 µM): 9.36%
viability, T/C (second compound 1 µM, first compound 0.0316 µM): 22.3%
viability, T/C (second compound 1 µM, first compound 0.1 µM): 20.9%
viability, T/C (second compound 1 µM, first compound 0.316 µM): 24.7%
viability, T/C (second compound 1 µM, first compound 1 µM): 17.8%
viability, T/C (second compound 1 µM, first compound 3.16 µM): 12.2%
viability, T/C (second compound 1 µM, first compound 10 µM): 6.79%
viability, T/C (second compound 3.16 µM, first compound 0.0316 µM): 22.9%
viability, T/C (second compound 3.16 µM, first compound 0.1 µM): 20.1%
viability, T/C (second compound 3.16 µM, first compound 0.316 µM): 18.5%
viability, T/C (second compound 3.16 µM, first compound 1 µM): 20%
viability, T/C (second compound 3.16 µM, first compound 3.16 µM): 10.8%
viability, T/C (second compound 3.16 µM, first compound 10 µM): 6.49%
viability, T/C (second compound 10 µM, first compound 0.0316 µM): 18.1%
viability, T/C (second compound 10 µM, first compound 0.1 µM): 18.4%
viability, T/C (second compound 10 µM, first compound 0.316 µM): 21%
viability, T/C (second compound 10 µM, first compound 1 µM): 20.2%
viability, T/C (second compound 10 µM, first compound 3.16 µM): 13.6%
viability, T/C (second compound 10 µM, first compound 10 µM): 7.4%

IC50 (second compound 0.0316 µM): 69.3 nM
IC50 (second compound 0.1 µM): < 9.49 nM
IC50 (second compound 0.316 µM): < 9.49 nM
IC50 (second compound 1 µM): < 9.49 nM
IC50 (second compound 3.16 µM): < 9.49 nM
IC50 (second compound 10 µM): < 9.49 nM
SMILES: NC(=O)C(=Cn1cnc(-c2cc(C(F)(F)F)cc(C(F)(F)F)c2)n1)c1cncnc1 + CNC(=O)c1ccc(Nc2nc(OC3CCCC3)c3c(-c4ccc5nc(C)oc5c4)c[nH]c3n2)c(OC)c1
viability, T/C (second compound 0.0316 µM, first compound 0.00949 µM): 123%
viability, T/C (second compound 0.0316 µM, first compound 0.03 µM): 150%
viability, T/C (second compound 0.0316 µM, first compound 0.0949 µM): 17.6%
viability, T/C (second compound 0.0316 µM, first compound 0.3 µM): 10.1%
viability, T/C (second compound 0.0316 µM, first compound 0.949 µM): 9.34%
viability, T/C (second compound 0.0316 µM, first compound 3 µM): 3.87%
viability, T/C (second compound 0.1 µM, first compound 0.00949 µM): 44.8%
viability, T/C (second compound 0.1 µM, first compound 0.03 µM): 50.1%
viability, T/C (second compound 0.1 µM, first compound 0.0949 µM): 12.1%
viability, T/C (second compound 0.1 µM, first compound 0.3 µM): 6.75%
viability, T/C (second compound 0.1 µM, first compound 0.949 µM): 5.9%
viability, T/C (second compound 0.1 µM, first compound 3 µM): 2.36%
viability, T/C (second compound 0.316 µM, first compound 0.00949 µM): 20.1%
viability, T/C (second compound 0.316 µM, first compound 0.03 µM): 13.7%
viability, T/C (second compound 0.316 µM, first compound 0.0949 µM): 12.3%
viability, T/C (second compound 0.316 µM, first compound 0.3 µM): 6.63%
viability, T/C (second compound 0.316 µM, first compound 0.949 µM): 3.98%
viability, T/C (second compound 0.316 µM, first compound 3 µM): 3%
viability, T/C (second compound 1 µM, first compound 0.00949 µM): 18.6%
viability, T/C (second compound 1 µM, first compound 0.03 µM): 10.4%
viability, T/C (second compound 1 µM, first compound 0.0949 µM): 9.1%
viability, T/C (second compound 1 µM, first compound 0.3 µM): 3.59%
viability, T/C (second compound 1 µM, first compound 0.949 µM): 1.47%
viability, T/C (second compound 1 µM, first compound 3 µM): 0.79%
viability, T/C (second compound 3.16 µM, first compound 0.00949 µM): 14.3%
viability, T/C (second compound 3.16 µM, first compound 0.03 µM): 14%
viability, T/C (second compound 3.16 µM, first compound 0.0949 µM): 6.09%
viability, T/C (second compound 3.16 µM, first compound 0.3 µM): 2.12%
viability, T/C (second compound 3.16 µM, first compound 0.949 µM): 1.2%
viability, T/C (second compound 3.16 µM, first compound 3 µM): 1.63%
viability, T/C (second compound 10 µM, first compound 0.00949 µM): 14.7%
viability, T/C (second compound 10 µM, first compound 0.03 µM): 13.1%
viability, T/C (second compound 10 µM, first compound 0.0949 µM): 7.07%
viability, T/C (second compound 10 µM, first compound 0.3 µM): 1.75%
viability, T/C (second compound 10 µM, first compound 0.949 µM): 1.33%
viability, T/C (second compound 10 µM, first compound 3 µM): 0.47%

Reference: PubChem BioAssay AID2060609 (Molecular Pharmacology Branch, DTP, NCI, 2025)
